The target in one data set is CYP2D6 (Homo sapiens, UniProt P10635). Nature of the data set: CYP450 inhibition, CYP2D6.
Another data set has as its target T1, ERCC1-XPF (Homo sapiens, UniProt Q92889).
T1 construct: His6; made in house; host or cells: E. coli BL21 (DE3)
T1 sequence (Q92889 1-916): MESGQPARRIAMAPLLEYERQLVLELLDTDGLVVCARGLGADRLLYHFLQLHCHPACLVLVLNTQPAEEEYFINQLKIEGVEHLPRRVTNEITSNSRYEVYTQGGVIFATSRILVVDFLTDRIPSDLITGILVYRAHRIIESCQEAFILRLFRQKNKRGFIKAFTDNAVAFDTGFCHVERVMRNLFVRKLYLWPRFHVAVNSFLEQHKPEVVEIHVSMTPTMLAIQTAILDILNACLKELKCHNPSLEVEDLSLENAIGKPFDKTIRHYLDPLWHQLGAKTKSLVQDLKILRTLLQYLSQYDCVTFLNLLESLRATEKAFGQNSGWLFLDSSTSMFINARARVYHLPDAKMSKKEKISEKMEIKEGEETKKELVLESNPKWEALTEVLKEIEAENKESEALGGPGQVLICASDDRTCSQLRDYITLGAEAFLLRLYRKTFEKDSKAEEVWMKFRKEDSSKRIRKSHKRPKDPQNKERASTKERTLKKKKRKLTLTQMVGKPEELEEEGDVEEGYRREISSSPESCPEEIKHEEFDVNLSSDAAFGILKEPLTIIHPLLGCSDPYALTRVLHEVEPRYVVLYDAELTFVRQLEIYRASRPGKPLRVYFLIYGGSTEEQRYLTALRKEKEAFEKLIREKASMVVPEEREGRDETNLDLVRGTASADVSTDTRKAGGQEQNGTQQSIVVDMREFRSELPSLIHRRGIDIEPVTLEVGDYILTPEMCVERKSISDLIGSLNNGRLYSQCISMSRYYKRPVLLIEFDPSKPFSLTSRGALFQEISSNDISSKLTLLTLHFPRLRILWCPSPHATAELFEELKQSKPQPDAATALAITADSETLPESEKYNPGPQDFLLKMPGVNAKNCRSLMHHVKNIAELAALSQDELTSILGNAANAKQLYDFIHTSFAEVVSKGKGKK
Nature of the data set: Microplate fluorescence incision assay of ERCC1-XPF endonuclease activity. It counts as biochemical. As to conditions: for inhibition of ERCC1-XPF endonuclease activity (in words): compounds 10 μM each.

Another data set deals with serum proteins. Nature of the data set: ADME screening: serum protein binding. It counts as in vitro ADME. The conditions noted are these: Table 8.
In another data set the target is CYP3A4-M (Homo sapiens, UniProt P08684). Nature of the data set: CYP450 inhibition, CYP3A4-M.
The next data set relates to HCT116 cells. Nature of the data set: Clonogenic survival assay, cyclophosphamide treatment. It counts as cell-based, human. As to conditions: cyclophosphamide 0-300 μM, compound 1-4 μM. The protocol: Plates were incubated for another 8 days at 37° C. in a 5% CO2 atmosphere for colony formation. After this period plates were stained with crystal violet, colonies were counted, and plating efficiency and surviving fraction were calculated.

The target in data set [1] is T2, truncated ERCC1 (dERCC1) and XPF (dXPF) dimer (Homo sapiens, UniProt Q92889).
T2 construct: XPF (dXPF, codons 667-916); made in house
T2 sequence (Q92889 667-916): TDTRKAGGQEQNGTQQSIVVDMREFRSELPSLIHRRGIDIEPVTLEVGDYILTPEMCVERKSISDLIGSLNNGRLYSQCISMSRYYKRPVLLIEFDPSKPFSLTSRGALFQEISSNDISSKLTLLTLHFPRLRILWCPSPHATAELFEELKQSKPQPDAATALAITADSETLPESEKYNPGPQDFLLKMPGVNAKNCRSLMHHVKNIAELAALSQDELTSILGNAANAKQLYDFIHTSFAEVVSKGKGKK
Put plainly: Micro Scale Thermophoresis of truncated ERCC1-XPF. It counts as binding. The conditions noted are these: truncated dimer compared to individual peptides. An excerpt: MST allows for the detection of interactions and changes in the molecular properties of biomolecules at low nanomolar concentrations. We synthesized two human recombinant truncated forms of ERCC1 (dERCC1, codons 96-297) and XPF (dXPF, codons 667-916) for this study because these peptides contain the subunit interaction domains that the inhibitor was designed to disrupt.

Data set [2] in a line: Hepatocyte stability in vitro. It counts as in vitro ADME. The conditions noted are these: Table 8.
Another data set addresses T3, CYP1A2 (Homo sapiens, UniProt P05177).
T3 sequence (P05177 1-516): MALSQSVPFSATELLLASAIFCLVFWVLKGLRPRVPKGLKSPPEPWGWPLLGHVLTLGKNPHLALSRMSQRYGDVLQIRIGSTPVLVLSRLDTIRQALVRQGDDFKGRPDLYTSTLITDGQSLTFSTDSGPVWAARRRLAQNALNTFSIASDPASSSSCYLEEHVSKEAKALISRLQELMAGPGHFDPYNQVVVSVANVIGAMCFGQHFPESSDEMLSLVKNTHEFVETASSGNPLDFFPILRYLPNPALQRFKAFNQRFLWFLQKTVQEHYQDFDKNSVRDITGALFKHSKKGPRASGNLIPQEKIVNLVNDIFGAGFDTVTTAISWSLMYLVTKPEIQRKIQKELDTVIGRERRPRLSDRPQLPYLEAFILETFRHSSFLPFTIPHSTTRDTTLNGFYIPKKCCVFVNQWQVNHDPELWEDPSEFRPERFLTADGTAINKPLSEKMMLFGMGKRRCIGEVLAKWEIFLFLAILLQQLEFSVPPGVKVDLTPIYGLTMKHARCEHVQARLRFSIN
Put plainly: CYP450 inhibition, CYP1A2.

A short description of data set [3]: ADME screening: solubility. It counts as physicochemical. As to conditions: Table 8.

Entries after “also recorded” stand apart in the source; their conditions may differ.

CYP2D6, sequence (P10635 whole entry): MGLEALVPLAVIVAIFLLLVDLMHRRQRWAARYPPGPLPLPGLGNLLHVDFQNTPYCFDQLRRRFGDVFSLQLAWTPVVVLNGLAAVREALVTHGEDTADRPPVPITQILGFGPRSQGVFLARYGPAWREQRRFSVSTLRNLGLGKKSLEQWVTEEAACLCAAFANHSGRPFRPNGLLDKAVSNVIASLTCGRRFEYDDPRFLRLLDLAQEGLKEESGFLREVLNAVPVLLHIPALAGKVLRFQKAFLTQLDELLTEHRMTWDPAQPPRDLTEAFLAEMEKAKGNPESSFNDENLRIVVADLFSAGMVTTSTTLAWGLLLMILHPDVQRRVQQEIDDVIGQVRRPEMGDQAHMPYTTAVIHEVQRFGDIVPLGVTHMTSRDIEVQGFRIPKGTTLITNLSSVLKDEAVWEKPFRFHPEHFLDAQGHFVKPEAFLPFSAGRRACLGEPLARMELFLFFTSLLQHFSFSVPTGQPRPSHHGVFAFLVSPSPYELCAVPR
CYP3A4-M, sequence (P08684 whole entry): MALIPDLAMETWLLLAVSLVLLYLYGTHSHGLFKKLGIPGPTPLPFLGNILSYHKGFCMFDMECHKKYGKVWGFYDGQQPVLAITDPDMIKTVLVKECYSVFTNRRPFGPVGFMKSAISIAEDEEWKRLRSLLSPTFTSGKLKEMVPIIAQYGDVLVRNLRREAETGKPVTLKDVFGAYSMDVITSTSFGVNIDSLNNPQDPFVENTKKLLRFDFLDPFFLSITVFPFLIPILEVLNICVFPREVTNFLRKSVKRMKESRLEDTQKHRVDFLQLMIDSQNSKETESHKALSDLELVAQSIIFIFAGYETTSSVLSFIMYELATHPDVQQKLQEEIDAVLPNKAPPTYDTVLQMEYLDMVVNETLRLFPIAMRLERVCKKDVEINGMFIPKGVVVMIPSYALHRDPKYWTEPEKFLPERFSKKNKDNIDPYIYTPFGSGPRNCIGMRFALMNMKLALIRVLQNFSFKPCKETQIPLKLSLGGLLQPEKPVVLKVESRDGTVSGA

With `COc1ccc2nc3cc(Cl)ccc3c(Nc3ccc(O)c(CN4CCN(CCN(C)C)CC4)c3)c2c1` [Compound A4, 4-((6-Chloro-2-methoxyacridin-9-yl)amino)-2-((4-(2-(dimethylamino)ethyl)piperazin-1-yl)methyl) phenol], the “inhibition of CYP2D6 (in words)” value against CYP2D6 was “weak inhibitor”. In addition, the “enzyme activity after pre-incubation of ERCC1-XPF with compound (in words)” value at ERCC1-XPF (3 μM compound, 10% or 5% DMSO) is “time-dependent loss of enzyme activity”. The “inhibition of ERCC1-XPF endonuclease activity (in words)” value was “marked capacity to inhibit; also recorded: potent inhibitors” on ERCC1-XPF and “significantly better inhibitory properties” on ERCC1-XPF (listed as Gen A-4). Further, the “Serum protein binding (% bound)” value in the data set with serum proteins is “(99.9) % bound”. Moreover, the “Serum protein binding (in words)” value with serum proteins is given as “Strong”. On CYP3A4-M, the “inhibition of CYP3A4-M (in words)” value is recorded as “weak inhibitor”. For the same compound, the entries for the “sensitisation to cyclophosphamide, clonogenic survival (in words)” value in the data set with HCT116 cells and in the data set with HCT116 cells (listed as Gen A4) were “no colonies were observed; also recorded: significantly sensitized the cells to cyclophosphamide; also recorded: no colonies were detected” and “significantly sensitized the cells to cyclophosphamide”, respectively. In addition, the “change in thermophoresis properties (in words)” value in [1] is “induced a larger change in the thermophoresis properties of the truncated dimer”. In [2], the “Hepatocyte stability in vitro CLint (in words)” value is “(medium”. For the same compound, inhibition against CYP1A2 was half-maximal at 6.4 µM (IC50). Moreover, the “Solubility (in words)” value in [3] is listed as “Poor”.

In general, IC50 refers to the concentration needed to halve the response being measured. A higher IC50 goes with a need for much substance.
